# Test results from patent US9504252B2, “Microbiocides and uses thereof” (Buckman Laboratories International, Inc., priority 2014, dated 2016).
# Entries after “also recorded” stand apart in the source; their conditions may differ.
# What was measured:
# [1] = test system: sulfate reducing bacteria (SRB); experiment: kill study, API broth serial dilution (SRB); type: cell-based; details: for API SERIES: SRB count, seven days, 30° C.
# Method: (§1) A one gallon sample of cone water from a contaminated drilling fluid (run through a hydrocyclone) in the DJ (Denver-Julesburg Basin) formation was employed for these studies. The cone water pH was measured at 6.4 and the redox potential was at 34.6. The sample included anaerobic sulfate reducing, aerobic and anaerobic acid producing bacteria and general heterotrophic bacteria. Both organism types were present in this sample with the SRB+H2S at levels in excess of 10^12 bacteria per milliliter in the original sample.
# (§2) In order to ensure that the active range was captured, the contaminated water was diluted with Butterfield phosphate buffer solution to a concentration of 0.1% of its original concentration. Serial dilutions were made using 1 cc sterile syringes to inoculate 9.0 mL anaerobic American Petroleum Institute (API) broth with an iron nail designed for sulfate reducing bacteria (SRB). In addition, Acid Producing B acteria (APB) and General Heterotrophic Bacteria (GHB) were tested using serial dilutions in 9 mL phenol red (PR) broth. The media salinity was matched to the substrate salinity of ≈0.5% that was measured by percent Total Dissolved Solids (TDS). Additionally, an untreated control was included. In all cases the concentration was determined on a weight/weight basis of parts per million (milligrams per kilogram). Each aliquot was continuously mixed (in a thermally controlled incubator) well after the addition of the biocide and maintained at 30° C. for the duration of study.
# (§3) Untreated and treated aliquots were inspected after seven days checking to see if the bottles the API bottles turned black (indicating positive SRB growth) and to see if the PRD bottles turned yellow (indicating the presence of APB) and/or turbidity (indicating the presence of GHB). A color change at the highest dilution indicated the log quantity of organisms present.
# [2] = test system: Acid Producing Bacteria (APB) and General Heterotrophic Bacteria (GHB); experiment: kill study, phenol red broth serial dilution (APB/GHB); type: cell-based; details: for PRD SERIES: APB and GHB count, seven days, 30° C.
# Method: as §1, §2, §3
structure (smiles),measurement,setting,value
"CNC(=S)[S-].[Na+] [SNMDTC, sodium-N-methyldithiocarbamate]",decrease in SRB concentration,"[1]; 1,000 ppm",did not appear to be any noticeable decrease
same,API SERIES,"[1]; 1,000 ppm total biocide",>10^4
same,API SERIES,"[1]; 10,000 ppm total biocide",>10^2
same,decrease in bacterial concentration of SRB,"[1]; 10,000 ppm, over a period of eight days",two
same,decrease in APB/GHB concentration,"[2]; 1,000 ppm",did not appear to be any noticeable decrease; also recorded: did not have any noticeable effect
same,PRD SERIES,"[2]; 1,000 ppm total biocide",≧10^3
same,PRD SERIES,"[2]; 10,000 ppm total biocide",>10^2
